In ChEMBL document CHEMBL1201862, “PubChem BioAssay data set” (2004):
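Tested at 5 concentrations; 48 h exposure; 96-well plates; endpoints linearly interpolated, else capped at highest concentration. At the GI50, growth is halved.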 The source made the active and inactive calls. No stated cut-off is given here; in the data, active = GI50 up to about 1.1 µM and inactive = higher.

What was measured:
Test in all cases: inhibition of tumour cell growth, NCI panel, 48 h
786-0 = system: 786-0
BT-549 = system: BT-549
COLO 205 = system: COLO 205
DU-145 = system: DU-145
HCT-15 = system: HCT-15
HL-60 = system: HL-60
HT-29 = system: HT-29
IGROV-1 = system: IGROV-1
K562 = system: K562
LOX IMVI = system: LOX IMVI
MCF7 = system: MCF7
Malme-3M = system: Malme-3M
NCI-H226 = system: NCI-H226
NCI-H460 = system: NCI-H460
SK-MEL-28 = system: SK-MEL-28
SK-MEL-2 = system: SK-MEL-2
SN12C = system: SN12C
SNB-75 = system: SNB-75
SR = system: SR
SW-620 = system: SW-620

Measured: GI50

OCCOc1ccccc2cccc1-2
inactive: 786-0 > 100 µM | BT-549 > 100 µM | COLO 205 > 100 µM | DU-145 > 100 µM | HL-60 > 100 µM | HT-29 > 100 µM | IGROV-1 > 100 µM | K562 84.7 µM | LOX IMVI > 100 µM | MCF7 > 100 µM | Malme-3M > 100 µM | NCI-H226 > 100 µM | NCI-H460 73.6 µM | SK-MEL-28 > 100 µM | SK-MEL-2 > 100 µM | SN12C > 100 µM | SNB-75 > 100 µM | SR 80 µM | SW-620 > 100 µM
> 100 µM: HCT-15

COC(=O)C1=C(O)C(C(=O)OC)[C@]2(O)[C@H](C(=O)OC)[C@H]1C[C@@H](c1ccc(Cl)cc1Cl)[C@H]2C(=O)OC (stereo not given in full)
4.91 µM: HCT-15
inactive: 786-0 26.3 µM | BT-549 6.31 µM | COLO 205 8.77 µM | DU-145 6.68 µM | HL-60 2.65 µM | HT-29 13.2 µM | IGROV-1 6.3 µM | K562 3.47 µM | LOX IMVI 5.92 µM | MCF7 4.79 µM | Malme-3M 6.95 µM | NCI-H226 2.91 µM | NCI-H460 5.64 µM | SK-MEL-28 12.4 µM | SK-MEL-2 4.7 µM | SN12C 3.28 µM | SNB-75 8.61 µM | SR 4.06 µM | SW-620 6.01 µM

O=C(O)CCSC1=NCCN1
> 100 µM: HCT-15
inactive: 786-0 > 100 µM | BT-549 > 100 µM | COLO 205 > 100 µM | DU-145 > 100 µM | HL-60 > 100 µM | HT-29 > 100 µM | IGROV-1 > 100 µM | K562 > 100 µM | LOX IMVI > 100 µM | MCF7 > 100 µM | Malme-3M > 100 µM | NCI-H226 > 100 µM | NCI-H460 > 100 µM | SK-MEL-28 > 100 µM | SK-MEL-2 > 100 µM | SN12C > 100 µM | SNB-75 > 100 µM | SR > 100 µM | SW-620 > 100 µM

CCCCCCCCCc1cccc(N2C(N)=NC(N)=NC2(C)C)c1
active: 786-0 < 0.01 µM | BT-549 1 µM | COLO 205 0.0209 µM | DU-145 < 0.0307 µM | HL-60 < 0.01 µM | HT-29 < 0.01 µM | IGROV-1 < 0.01 µM | K562 < 0.01 µM | LOX IMVI < 0.01 µM | MCF7 < 0.0204 µM | Malme-3M 0.104 µM | NCI-H460 < 0.01 µM | SK-MEL-28 0.871 µM | SK-MEL-2 0.993 µM | SN12C 0.0198 µM | SNB-75 0.735 µM | SR < 0.01 µM | SW-620 < 0.01 µM
inactive: NCI-H226 1.26 µM
< 0.01 µM: HCT-15

CCCCC(=C=C(C)CO)C1CCCN1C(=O)OC(C)(C)C (stereo not given)
inactive: 786-0 16.4 µM | BT-549 16.1 µM | COLO 205 15.4 µM | DU-145 18.1 µM | HL-60 13.4 µM | HT-29 17.5 µM | IGROV-1 17.9 µM | K562 17.9 µM | LOX IMVI 16.8 µM | MCF7 20.4 µM | Malme-3M 15 µM | NCI-H226 16 µM | NCI-H460 16.1 µM | SK-MEL-28 18.4 µM | SK-MEL-2 16.5 µM | SN12C 17.3 µM | SNB-75 22.5 µM | SR 15.1 µM | SW-620 29.2 µM
17.9 µM: HCT-15

COc1c(C)c(C/C=C(\C)CCCCO[Si](c2ccccc2)(c2ccccc2)C(C)(C)C)c(OC)c(OC)c1OC
inactive: 786-0 22.7 µM | BT-549 > 46.5 µM | COLO 205 20.6 µM | DU-145 27.9 µM | HL-60 47.3 µM | HT-29 > 46.5 µM | IGROV-1 24.9 µM | K562 28.8 µM | LOX IMVI 15.5 µM | MCF7 > 46.5 µM | Malme-3M > 100 µM | NCI-H226 > 100 µM | NCI-H460 14.6 µM | SK-MEL-28 > 100 µM | SK-MEL-2 > 100 µM | SN12C 27.7 µM | SNB-75 > 46.3 µM | SR 43.2 µM | SW-620 45.6 µM
> 46.5 µM: HCT-15

CC(ON(C(c1ccccc1)C(C)C)C(C)(C)C)c1ccccc1 (stereo not given)
61.8 µM: HCT-15
inactive: 786-0 16.4 µM | BT-549 12.6 µM | COLO 205 17.3 µM | DU-145 18.5 µM | HL-60 18.7 µM | HT-29 18.9 µM | IGROV-1 23.1 µM | K562 18.9 µM | LOX IMVI 18.4 µM | MCF7 16.4 µM | Malme-3M 38.3 µM | NCI-H226 19 µM | NCI-H460 18.1 µM | SK-MEL-28 20.4 µM | SK-MEL-2 18.4 µM | SN12C 16.8 µM | SNB-75 25.1 µM | SR 23 µM | SW-620 16.2 µM

COC(=O)/C=C(\C(=O)OC)C1C(=O)Oc2c(C)c(=O)c3ccccc3n21 (stereo not given)
> 100 µM: HCT-15
inactive: 786-0 > 100 µM | BT-549 > 100 µM | COLO 205 > 100 µM | DU-145 > 100 µM | HL-60 > 100 µM | HT-29 > 100 µM | IGROV-1 > 100 µM | K562 > 100 µM | LOX IMVI > 100 µM | MCF7 > 100 µM | Malme-3M > 100 µM | NCI-H226 > 100 µM | NCI-H460 > 100 µM | SK-MEL-28 > 100 µM | SK-MEL-2 > 100 µM | SN12C > 100 µM | SNB-75 > 100 µM | SR > 100 µM | SW-620 > 100 µM

C/C(=N\Nc1nc2cc(C(F)(F)F)ccc2s1)c1ccccn1
0.0993 µM: HCT-15
inactive: BT-549 3.35 µM | SNB-75 1.98 µM
active: 786-0 0.34 µM | COLO 205 0.0442 µM | DU-145 0.401 µM | HL-60 0.127 µM | HT-29 0.0422 µM | IGROV-1 0.123 µM | K562 0.266 µM | LOX IMVI 0.287 µM | MCF7 0.0753 µM | Malme-3M 0.0622 µM | NCI-H226 0.124 µM | NCI-H460 0.452 µM | SK-MEL-28 0.211 µM | SK-MEL-2 0.594 µM | SN12C 0.23 µM | SR 0.0624 µM | SW-620 0.102 µM

Cc1c(-c2ccccc2)[nH]c2ccc(Cl)cc2c1=O
active: NCI-H460 0.314 µM
28.7 µM: HCT-15
inactive: 786-0 29.8 µM | BT-549 62.2 µM | COLO 205 70.6 µM | DU-145 70 µM | HL-60 24.2 µM | HT-29 40.8 µM | IGROV-1 33.9 µM | K562 8.87 µM | LOX IMVI 27.9 µM | MCF7 25.2 µM | Malme-3M 18.3 µM | NCI-H226 30.4 µM | SK-MEL-28 40.6 µM | SK-MEL-2 18 µM | SN12C > 100 µM | SNB-75 26 µM | SR 12.2 µM | SW-620 75.2 µM

O=C1Nc2ccc([N+](=O)[O-])cc2/C1=N/NC(=S)Nc1ccc([N+](=O)[O-])cc1
inactive: 786-0 16.9 µM | BT-549 16.4 µM | COLO 205 36 µM | DU-145 21.5 µM | HL-60 26.7 µM | HT-29 26.7 µM | IGROV-1 17.7 µM | K562 34.2 µM | LOX IMVI 22.2 µM | MCF7 25.4 µM | Malme-3M 33.3 µM | NCI-H226 27.9 µM | NCI-H460 19.7 µM | SK-MEL-28 26.5 µM | SK-MEL-2 18.5 µM | SN12C 32.3 µM | SNB-75 21.8 µM | SR 30.2 µM | SW-620 39.2 µM
19 µM: HCT-15

CC1(C)CCC(C)(C)c2cc(NC(=O)c3ccc(C(=O)O)cc3)ccc21 [TAMIBAROTENE]
26.9 µM: HCT-15
inactive: 786-0 31.3 µM | BT-549 25.7 µM | COLO 205 23.9 µM | DU-145 23.8 µM | HL-60 44.5 µM | HT-29 25.8 µM | IGROV-1 34.8 µM | K562 54.7 µM | LOX IMVI 22.9 µM | MCF7 28.9 µM | Malme-3M 17.9 µM | NCI-H226 22.2 µM | NCI-H460 21.3 µM | SK-MEL-28 > 48.3 µM | SK-MEL-2 25.6 µM | SN12C 25.5 µM | SNB-75 > 100 µM | SR > 69.8 µM | SW-620 > 60.4 µM
